Structures can show the parent of a compound that is named as a salt. Where two headings read alike, the source gives them in different places.
Tests used:
[1] = target: luciferase-transfected Leishmania donovani; assay: Anti-leishmanial efficacy (EC50) in the ex vivo splenic explant model; type: cell-based
Protocol: To establish the plate assay for drug screening, the spleens from 2 infected hamsters were aseptically removed and placed in a Petri dish containing 5 mL of Collagenase D (Roche) at 2 mg/mL of buffer (10 mM Hepes pH 7.4, 150 mM NaCl, 5 mM KCl, 1 mM MgCl2, 1.8 mM CaCl2). The spleen was infiltrated by injection with approximately 2 mL of Collagenase solution, the tissue was cut into small pieces using sharp scissors, and incubated for 20 minutes at 37°C. The cell suspension and remaining tissue fragments were gently passed through a 100 µm cell strainer (B–D) to obtain a single cell suspension, which was washed twice by centrifugation (500 g for 7 min at 4°C) and re-suspended in culture medium composed of DMEM (Gibco), 5% FBS, 1 mM Sodium pyruvate (Gibco), 1X MEM amino acids solution (Sigma), 0.02% v/v/EDTA, 10 mM HEPES buffer (Cellgro) and 100 IU/mL Penicillin/100 […] Streptomycin solution (Cellgro).
The anti-leishmanial efficacy of the compounds was determined using the splenic explant model in a 96-well plate format. […] Because variation in the parasite burden between different explant cultures was expected, the concentration of cells used in each experiment was adjusted to give approximately 100 counts by luminometry (equivalent to ∼240,000 parasites). The number of surviving parasites was determined by luminometry as described above.

HepG2 cells = assay: Cell toxicity (CC50) in the HepG2 cell line, CellTiter-Glo; type: cell-based, human
Protocol: (§1) After 24 hours of culture at 37°C the number of viable cells was determined by quantification of the ATP present in the cell using the CellTiter-Glo luminescent Cell Viability Assay (Promega).

[2] = as above; type: cell-based, human; settings: human
Protocol: as §1

[3] = ex vivo splenic explant, 48 h, luminometry, at least two experiments, compound from screened library, read-out: Ex vivo model EC50 Mean
[4] = HepG2 cell line, 24 h, ATP luminescence, compound from screened library, read-out: HepG2 CC50 Mean
[5] = 50% reduction in parasite counts in the ex vivo model, read-out: EC50 Mean (Table S2)
[6] = Leishmania donovani, 48 h, ex vivo splenic explant, 48 h, luminometry, at least two experiments, compound from screened library, read-out: Ex vivo model EC50 Mean
[7] = HepG2 cells, HepG2 cell line, 24 h, ATP luminescence, compound from screened library, read-out: HepG2 CC50 Mean
[8] = Leishmania donovani, ex vivo splenic explant, 48 h, luminometry, at least two experiments, compound from screened library, read-out: Ex vivo model EC50 Mean
[9] = Leishmania donovani, 50% reduction in parasite counts in the ex vivo model, read-out: EC50 Mean (Table S2)

With `c1ccc2c(c1)Sc1ccccc1N2CC1CN2CCC1CC2` (centres unmarked) [Mequitazine,10-(3-Quinuclidinylmethyl)phenothiazine] the EC50 [1, 3] was 8.5 µM and the CC50 (HepG2 cells; [4]) was 50.3 µM.
For `CSc1ccc2c(c1)N(CCCN(C)C)c1ccccc1S2` [Thiomethylpromazine], the EC50 [1, 3] was 13 µM and the CC50 (HepG2 cells; [4]) was 83.9 µM.
In the case of `CCCCCCc1ccc(O)cc1O.Nc1c2ccccc2nc2ccccc12` [Acrisorcin], the EC50 [1, 3] is reported as 8 µM and the CC50 (HepG2 cells; [4]) is reported as 50.9 µM.
`C=C1C(=O)O[C@@H]2[C@H]1CC[C@H](C)[C@]1(O)C=CC(=O)[C@@]21C` [Parthenicin] gave an EC50 [1, 3] of 8.7 µM and a CC50 (HepG2 cells; [4]) of 64.5 µM.
In the case of `CCCC(c1cc(C(C)(C)C)c(O)cc1C)c1cc(C(C)(C)C)c(O)cc1C` [Sumilit BBM], the EC50 [1, 3] is reported as 9.4 µM and the CC50 (HepG2 cells; [4]) is reported as 71.7 µM.
`CC1=CC(C2/C(=N/O)C=C(C)CC2(C)C)C(O)C(C)(C)C1` (centres unmarked) [Cristox Oxime] showed an EC50 [1, 3] of 10.9 µM and a CC50 (HepG2 cells; [4]) of 140 µM.
For `CC1CC(C)(O)CC(C(O)CC2CC(=O)NC(=O)C2)C1=O` (centres unmarked) [Streptovitacin A], the EC50 [1, 3] was 3.7 µM and the CC50 (HepG2 cells; [4]) was 32.4 µM.
`c1ccc(-c2ccc(-c3ccc(C4=NCCN4)cc3)o2)cc1` [2-[4-(5-phenylfuran-2-yl)phenyl]-4,5-dihydro-1H-imidazole chloride] showed an EC50 [1, 3] of 7.5 µM and a CC50 (HepG2 cells) of 42.9 µM.
`CC(C)c1ccc2c(c1)CC[C@H]1[C@](C)(CN)CCC[C@]21C` [Dehydroabietylamine] gave an EC50 [1, 3] of 5.8 µM and a CC50 (HepG2 cells) of 32.9 µM.
`CC[C@@H](C(=O)[C@@H](C)[C@@H](O)[C@H](C)CCc1ccc(C)c(O)c1C(=O)O)[C@H]1O[C@](CC)([C@H]2CC[C@](O)(CC)[C@H](C)O2)C[C@@H]1C` [Lasalocid Sodium] showed an EC50 [1, 3] of 8.9 µM and a CC50 (HepG2 cells; [4]) of 45.8 µM.
`OC(c1cc(-c2ccc(Cl)cc2)nc2ccccc12)C1CCCCN1` (centres unmarked) [2-(4-chlorophenyl)quinolin-4-yl]-(2-piperidyl)methanol] showed an EC50 [1, 3] of 6.7 µM and a CC50 (HepG2 cells; [4]) of 38.4 µM.
Compound `Cc1cc(C(C)(C)CC(C)(C)C)ccc1OCCOCC[N+](C)(C)Cc1ccccc1` [Methylbenzethonium Chloride] has an EC50 [1, 5] of 7.06 µM, an EC50 [1, 3] of 7.1 µM and a CC50 (HepG2 cells) of 53.2 µM.
Work on `CC(C)=CC(=O)O[C@H]1[C@H]2[C@H](OC(=O)[C@H]2C)[C@H](O)[C@@H](C)[C@@H]2C=CC(=O)[C@]21C` [Fastigilin B] yielded an EC50 [1, 3] of 8.9 µM and a CC50 (HepG2 cells; [4]) of 44.8 µM.
In the case of “7-(2-(6-Ethoxy-1-methyl-1.lambda.~5~-quinolin-2-yl)vinyl)-5-methyl-8-quinolinol; Quinolinium, {6-ethoxy-2-[2-(8-hydroxy-5-methyl-7-quinolyl)vinyl]-1-methyl-} iodide”, the EC50 [1, 3] is reported as 5.7 µM and the CC50 (HepG2 cells; [4]) is reported as 46 µM.
Work on Benzalkonium Chloride yielded an EC50 [1, 3] of 6.4 µM and a CC50 (HepG2 cells; [4]) of 38.6 µM.
Compound `CCN(CC)CC(O)c1ccc2ccc3ccccc3c2c1` (stereo not drawn) [3-Phenanthrenemethanol, α-[ (diethylamino)methyl]-, hydrochloride] has an EC50 [1, 3] of 8.9 µM and a CC50 (HepG2 cells; [4]) of 54.2 µM.
In the case of `CCC1=C(CC2NCCc3cc(OC)c(OC)cc32)CC2c3ccccc3CCN2C1` (centres unmarked) [2-[(6,7-dimethoxy-1,2,3,4-tetrahydroisoquinolin-1-yl)methyl]-3-ethyl-4,6,7,11b-tetrahydro-1H-pyrido[2,1-a]isoquinoline], the EC50 [1, 3] is reported as 8.8 µM and the CC50 (HepG2 cells; [4]) is reported as 76.2 µM.
For `COc1ccc2c(=O)oc3c(OC)cc(CCN(C)C)c4c(=O)oc1c2c34` [Thaspine Acetate], the EC50 [1, 3] was 2.7 µM and the CC50 (HepG2 cells; [4]) was 51.4 µM.
In the case of `CC[C@@H](C(=O)[C@@H](C)[C@@H](O)[C@H](C)[C@@H]1O[C@@H]([C@@H](CC)C(=O)O)CC[C@@H]1C)[C@H]1O[C@]2(C=C[C@@H](O)[C@]3(CC[C@@](C)([C@H]4CC[C@](O)(CC)[C@H](C)O4)O3)O2)[C@H](C)C[C@@H]1C` [Salinomycin, Sodium], the EC50 [1, 5] is reported as 7.44 µM, the EC50 [1, 3] is reported as 7.4 µM and the CC50 (HepG2 cells; [4]) is reported as 48.4 µM.
For `C=C1C(=O)O[C@H]2C[C@@H]1[C@@H](OC(C)=O)C/C(C)=C/CC/C(C)=C\CC[C@@]2(C)O` [Crassin], the EC50 [1, 6] was 8.9 µM and the CC50 at 24 h [2, 7] was 51.6 µM.
In the case of `CN(C)CCCNc1c2c(=O)n(C)c(=O)nc-2n(C)c2ccccc12` [Pyrimido[4,5-b]quinoline-2,4(3H,10H)-dione, 5-[[3-(dimethylamino)propyl]amino]-3,10-dimethyl-, monohydrochloride], the EC50 [1, 6] is reported as 6.5 µM and the CC50 at 24 h [2, 7] is reported as 49.5 µM.
In the case of `O=C1C=C2C=C[C@H]3C[C@]2(O1)[C@@H]1CCCCN13` [Virosecurinine], the EC50 [1, 3] is reported as 8.8 µM and the CC50 (HepG2 cells; [4]) is reported as 121 µM.
`CN(C)CCCNc1c2c(nc3ccc(Cl)cc13)CCCC2` [N-(7-chloro-1,2,3,4-tetrahydroacridin-9-yl)-N',N'-dimethyl-propane-1,3-diamine] gave an EC50 [1, 8] of 6.4 µM and a CC50 [2, 4] of 58.8 µM.
`C=C1C(=O)[C@]23[C@H](O)[C@H]1CC[C@H]2[C@@]12CO[C@]3(O)[C@@H](O)[C@@H]1C(C)(C)CC[C@@H]2O` [Rubescensin A] gave an EC50 [1, 3] of 11 µM and a CC50 (HepG2 cells) of 69.1 µM.
`Cc1c2ccncc2c(C)c2c1[nH]c1ccccc12` [Ellipticine] gave an EC50 [1, 6] of 2.4 µM and a CC50 [2] of 30.7 µM.
With `CC(C)[C@@H]1NC(=O)[C@H](C)OC(=O)[C@@H](C(C)C)NC(=O)[C@@H](C(C)C)OC(=O)[C@H](C(C)C)NC(=O)[C@H](C)OC(=O)[C@@H](C(C)C)NC(=O)[C@@H](C(C)C)OC(=O)[C@H](C(C)C)NC(=O)[C@H](C)OC(=O)[C@@H](C(C)C)NC(=O)[C@@H](C(C)C)OC1=O` [Valinomycin] the EC50 [1, 8] was 0.02 µM and the CC50 at 24 h [2, 4] was 10.7 µM.
Compound `COc1cc(O)c(C(=O)/C=C/c2ccc(O)c(OC)c2)c(OC)c1` [2',4-dihydroxy-3,4',6'-trimethoxychalcone] has an EC50 [1, 6] of 14.6 µM and a CC50 at 24 h [2, 7] of 106 µM.
For `O=c1c2ccccc2sc2c(CO)ccc(NCCN3CCCCC3)c12` [Thioxanthen-9-one, 4-(hydroxymethyl)-1-[(2-piperidinoethyl)amino]-; 9H-Thioxanthen-9-one, 4-(hydroxymethyl)-1-[[2-(1-piperidinyl)ethyl]amino]-], the EC50 [1, 3] was 9.1 µM and the CC50 (HepG2 cells; [4]) was 56 µM.
With `COc1ccc2cc1Oc1ccc(cc1)C[C@H]1c3c(cc4c(c3Oc3cc5c(cc3OC)CCN(C)[C@@H]5C2)OCO4)CCN1C` [Cepharanthine] the EC50 [1, 6] was 11.4 µM and the CC50 at 24 h [2] was 86.3 µM.
For `COc1ccc2cc1Oc1ccc(cc1)C[C@H]1c3cc(c(OC)cc3CCN1C)Oc1c(OC)c(OC)cc3c1[C@H](C2)N(C)CC3` [Tetrandrine], the EC50 [1, 8] was 5.6 µM and the CC50 at 24 h [2] was 31.4 µM.
For `C[C@@H]1C[C@H]2CC[C@H](O2)[C@H](C)C(=O)O[C@@H](C)C[C@@H]2CC[C@@H](O2)[C@@H](C)C(=O)O[C@H](C)C[C@H]2CC[C@H](O2)[C@H](C)C(=O)O[C@@H](C)C[C@@H]2CC[C@@H](O2)[C@@H](C)C(=O)O1` [Nonactin], the EC50 [1, 8] was 0.1 µM and the CC50 [2] was 23.7 µM.
With `OC(c1cc(-c2ccccc2)nc2c1ccc1ccccc12)C1CCCCN1` (centres unmarked) [2-phenylbenzo[h]quinolin-4-yl)(2-piperidinyl)me] the EC50 [1, 3] was 5 µM and the CC50 (HepG2 cells; [4]) was 28.7 µM.
Work on `Clc1ccc2c(NCCNC3CCCCC3)ccnc2c1` [N1-(7-chloro-4-quinolinyl)-N2-cyclohexyl-1,2-ethanediamine] yielded an EC50 [1, 6] of 3.9 µM and a CC50 at 24 h [2, 7] of 46.2 µM.
`CCC1=C(CC2NCCc3ccccc32)CC2c3cc(OC)c(OC)cc3CCN2C1` (centres unmarked) [3-ethyl-9,10-dimethoxy-2-(1,2,3,4-tetrahydro-isoquinolin-1-ylmethyl)-1,6,7,11b-tetrahydro-4H-pyrido(2,1-a)isoquinoline] gave an EC50 [1, 8] of 2.7 µM and a CC50 [2, 4] of 24 µM.
`O=[As](O)(O)c1ccc(Cc2ccc([As](=O)(O)O)cc2)cc1` [4-[(4-arsonophenyl)methyl]phenyl]arsonic acid] gave an EC50 [1, 3] of 6.9 µM and a CC50 (HepG2 cells; [4]) of 34.5 µM.
`CCN(CC)COC(=S)S` [Diethylaminomethoxymethanedithioic acid] showed an EC50 [1, 3] of 3.7 µM and a CC50 (HepG2 cells; [4]) of 83.7 µM.
`CN(C)CCCNc1cc(O)c2c(c1O)C(=O)c1ccccc1C2=O` [2-((3-(dimethylamino)propyl)amino)-1,4-dihydroxyanthra-9,10-quinone] gave an EC50 [1, 8] of 6.7 µM and a CC50 [2, 4] of 75.1 µM.
`CC(C)(C)NCCC(O)c1cc(C(F)(F)F)nc2c(C(F)(F)F)cccc12` (centres unmarked) [1-(2,8-bis(trifluoromethyl)-4-quinolinyl)-3-(tert-butylamino)-1-propanol] gave an EC50 [1, 6] of 7.9 µM and a CC50 at 24 h [2, 7] of 44.2 µM.
Work on `CCCCCCCCCCCCCCCC[N+](C)(C)C` [Cetrimonium Bromide] yielded an EC50 [1, 8] of 6.1 µM and a CC50 [2, 4] of 42.9 µM.
In the case of `C=C1C(=O)O[C@H]2[C@H]1CC/C(C)=C/CC[C@@]1(C)O[C@@H]21` [Parthenolide], the EC50 [1, 6] is reported as 13.3 µM, the EC50 [1, 9] is reported as 13.3 µM and the CC50 at 24 h [2, 7] is reported as 81.1 µM.
For `CC[n+]1c(-c2ccccc2)c2cc(N)ccc2c2ccc(N)cc21` [Homidium Bromide], the EC50 [1, 9] was 11.9 µM, the EC50 [1, 8] was 11.9 µM and the CC50 [2, 4] was 58.8 µM.
